Assays:
[1] = Liquid
[2] = xn = mol fraction of the nth substance listed; details: Liquid, x2 = 0

CCCCn1cc[n+](C)c1.F[P-](F)(F)(F)(F)F [1-butyl-3-methylimidazolium hexafluorophosphate]
[1]
Details	mass density [kg/m3]	viscosity [mPa·s]
283.15 K	1380.34	802.09
288.15 K	1376.06	552.57
293.15 K	1371.8	389.81
298.15 K	1367.53	282.24
303.15 K	1363.28	209.25
308.15 K	1359.19	159.15
313.15 K	1355.09	123.38
318.15 K	1350.98	97.78
323.15 K	1346.87	78.77
328.15 K	1342.78	61.34
333.15 K	1338.7	50.38
343.15 K	1330.56	35.25
353.15 K	1322.47	25.76

CCCCn1cc[n+](C)c1.F[P-](F)(F)(F)(F)F [1-butyl-3-methylimidazolium hexafluorophosphate] + C=C(C)C(=O)OC
[2]
Details	mass density [kg/m3]	viscosity [mPa·s]
283.15 K	1380.34	802.09
288.15 K	1376.06	552.57
293.15 K	1371.8	389.81
298.15 K	1367.53	282.24
303.15 K	1363.28	209.25
308.15 K	1359.19	159.15
313.15 K	1355.09	123.38
318.15 K	1350.98	97.78
323.15 K	1346.87	78.77
328.15 K	1342.78	61.34
333.15 K	1338.7	50.38
343.15 K	1330.56	35.25
353.15 K	1322.47	25.76

C=C(C)C(=O)OC [methyl methacrylate]
[1]
Details	mass density [kg/m3]	viscosity [mPa·s]
283.15 K	954.802	0.6808
288.15 K	949.097	0.6337
293.15 K	943.365	0.5899
298.15 K	937.615	0.554
303.15 K	931.837	0.5248
308.15 K	926.032	0.4956
313.15 K	920.185	0.4719
318.15 K	914.317	0.4497
323.15 K	908.405	0.4294
328.15 K	902.468	0.41
333.15 K	896.479	0.3938
343.15 K	884.418	0.3636
353.15 K	872.129	0.3398

Reference: the NIST ThermoML archive (doi:10.1021/je900091b)
